For assay [1], the target named is Activin receptor type-1-like (Homo sapiens, UniProt P37023).
Assay [2] deals with Bone morphogenetic protein receptor type-1B (Homo sapiens, UniProt O00238).

From ChEMBL document CHEMBL5728326, “Aminopyridine derivatives and their use as selective ALK-2 inhibitors” (2021) come the findings set out here.

Molecules are shown by their SMILES.

Sequence of Bone morphogenetic protein receptor type-1B (O00238 14-502 limits assumed, change not shown): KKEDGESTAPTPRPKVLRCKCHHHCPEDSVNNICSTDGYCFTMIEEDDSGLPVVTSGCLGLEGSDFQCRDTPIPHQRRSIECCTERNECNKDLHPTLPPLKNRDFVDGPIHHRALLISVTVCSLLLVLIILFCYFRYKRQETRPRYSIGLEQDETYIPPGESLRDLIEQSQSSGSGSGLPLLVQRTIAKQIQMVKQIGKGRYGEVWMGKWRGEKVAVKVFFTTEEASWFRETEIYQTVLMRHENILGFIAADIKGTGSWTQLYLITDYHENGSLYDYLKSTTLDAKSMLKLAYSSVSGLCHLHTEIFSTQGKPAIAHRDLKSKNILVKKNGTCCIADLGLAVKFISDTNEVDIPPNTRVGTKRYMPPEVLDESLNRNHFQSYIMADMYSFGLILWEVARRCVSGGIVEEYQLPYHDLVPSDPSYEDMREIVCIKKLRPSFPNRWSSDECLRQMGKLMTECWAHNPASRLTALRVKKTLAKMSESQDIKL
Sequence of Activin receptor type-1-like (P37023 22-503 limits assumed, change not shown): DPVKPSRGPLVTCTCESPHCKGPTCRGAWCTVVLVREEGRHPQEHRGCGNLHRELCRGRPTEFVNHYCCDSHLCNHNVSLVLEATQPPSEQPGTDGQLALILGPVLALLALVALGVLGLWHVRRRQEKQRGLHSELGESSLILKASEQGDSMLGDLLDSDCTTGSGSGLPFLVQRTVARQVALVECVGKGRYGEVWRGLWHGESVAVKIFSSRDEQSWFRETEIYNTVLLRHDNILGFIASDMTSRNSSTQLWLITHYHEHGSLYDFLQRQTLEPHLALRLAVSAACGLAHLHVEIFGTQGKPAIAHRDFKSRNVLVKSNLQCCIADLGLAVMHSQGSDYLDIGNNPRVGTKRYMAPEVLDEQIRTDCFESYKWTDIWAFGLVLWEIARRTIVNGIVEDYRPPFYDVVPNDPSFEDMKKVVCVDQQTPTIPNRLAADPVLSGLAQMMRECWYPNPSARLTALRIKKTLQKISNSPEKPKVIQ

What is called IC50 is the concentration that gives 50% inhibition. Read a low IC50 as greater potency. Consider `NC(=O)c1ccc(-c2cnc(N)c(C(=O)N[C@H]3CC[C@@H](O)CC3)c2)cc1`, for which the half-inhibitory concentration (IC50) in assay [1] is 0.89 µM; in assay [2] it was 10 µM.
